Assay results as given in patent US8680148B2, “Metallo-desferrioxamine complexes and their use in the treatment of bacterial infections” (priority 2006, dated 2014).
Where two headings read alike, the source gives them in different places.

Experiments:
Pseudomonas aeruginosa [1] = assay: Minimal inhibitory concentration on planktonic Pseudomonas aeruginosa, 96-well plates; type: cell-based; conditions: low iron medium
Excerpt: The effect of gallium-desferrioxamine on planktonic Pseudomonas aeruginosa was first examined in a low iron medium. […] When in the stationary phase, Pseudomonas aeruginosa is not effectively killed by antibiotics.
(§1) Bacterial strains and culture conditions. Pseudomonas aeruginosa PAO1 or PAO1 derivatives were used for all experiments except where noted. For flow cell biofilm experiments, strains containing the GFP expression vector pMRP9-1 were used. Both flow cell and disc reactor biofilms were grown in 1% Tryptic Soy Broth (TSB) (Becton Dickinson, Sparks, Md.) as were planktonic cultures. All cultures were incubated at 37° C. unless otherwise indicated. For the static biofilm formation assay we used M63 minimal medium supplemented with glucose (0.2%), arginine (0.4%) and MgSO4 (1 mM).
The minimal inhibitory concentrations (MICs) of various agents were determined by using 96-well plates. Each well contained 100 μl of 1% TSB plus test compound. The inoculum was 5×10^5 Pseudomonas aeruginosa cells per well. To test the effect of agents on survival of stationary phase cells, cultures inoculated with 10^5 cells per ml and incubated for 18 h at 37° C. with aeration were used. The 18-h cultures were centrifuged. The pelleted cells were washed twice and suspended in a volume of fresh medium equal to the original culture volume. […] Viability was determined by plating dilutions on LB agar.

[2] = test system: Pseudomonas aeruginosa biofilm; assay: Static biofilm formation in microtiter dish wells (crystal violet binding); type: cell-based; conditions: 18 h
Protocol: as §1
Pseudomonas aeruginosa biofilms were studied in three different ways. To evaluate gallium-desferrioxamine as a biofilm-blocking agent, the biofilm formation under static growth conditions was measured in microtiter dish wells. Biofilms were grown under static conditions in 96-well microtiter dishes for 18 h at 37° C. in M63 medium with or without added agents as indicated. Attached biomass was stained with crystal violet and the degree of crystal violet staining was measured.
FIG. 2 illustrates the biofilm growth of Pseudomonas aeruginosa cells in polyvinylchloride microtiter dish wells after treatment for 18 hours with desferrioxamine, Ga, gentamicin, or desferrioxamine-Ga. The concentrations used for each compound were 1 μM for DFO, Ga and DFO-Ga, and 0.1 μg/mL for Gm. Attached biofilm biomass was determined by measuring crystal violet binding.

[3] = test system: Pseudomonas aeruginosa biofilm; assay: Flow cell biofilms, confocal microscopy (GFP, propidium iodide); type: cell-based; conditions: for killing of cells in six-day old biofilm (propidium iodide staining): 24 h
Protocol: as §1
The development of biofilms under a continuous flow of medium was followed in microscope observation chambers. To visualize biofilms grown under a continuous flow of medium, flow cells and confocal microscopy with an incubation temperature of 25° C. were used. An agent was added to the medium at the beginning of an experiment to determine whether the agent prevented biofilm formation. To determine the affect of an agent on mature biofilms, the biofilm was allowed to grow for six days prior to addition of the test compound. To discriminate live and dead cells, propidium iodide (PI, 30 μM, Sigma Chemical Co., St. Louis, Mo.) was used.
FIG. 3 compares 3D-reconstructed confocal microscope images of six-day old biofilms of Pseudomonas aeruginosa cells expressing GFP treated for 24 hours with gentamicin (0.1 μg/mL), desferrioxamine (1 μM), gallium (1 μM), and gallium-desferrioxamine (1 μM).
FIGS. 4-8 compare the survival of P. aeruginosa in a six-day old biofilms stained with propidium iodide under with different treatment.

[4] = ferric iron; cited from earlier work
[5] = trivalent aluminium ions; cited from earlier work
[6] = divalent ions; cited from earlier work
[7] = test system: stationary phase Pseudomonas aeruginosa cells; assay: Survival of stationary phase Pseudomonas aeruginosa cells (plating on LB agar); type: cell-based; conditions: 24 h
Protocol: The minimal inhibitory concentrations (MICs) of various agents were determined by using 96-well plates. Each well contained 100 μl of 1% TSB plus test compound. The inoculum was 5×10^5 Pseudomonas aeruginosa cells per well. To test the effect of agents on survival of stationary phase cells, cultures inoculated with 10^5 cells per ml and incubated for 18 h at 37° C. with aeration were used. The 18-h cultures were centrifuged. The pelleted cells were washed twice and suspended in a volume of fresh medium equal to the original culture volume. The cells were incubated at 37° C. for an additional 2 h with shaking and then exposed to the test compounds at the indicated concentrations for 24 h. Viability was determined by plating dilutions on LB agar. FIG. 1 illustrates the survival of stationary phase Pseudomonas aeruginosa cells treated for 24 hours with desferrioxamine (DFO), gentamicin (Gm), gallium (Ga), gallium-desferrioxamine (DFO-Ga), DFO and Gm, Ga and Gm, and DFO-Ga and Gm. The concentrations used for each compound were 0.1 mM (shaded) or 1 mM (dark) for DFO, Ga or DFO-Ga and […] for Gm. […] Because gallium-desferrioxamine and gentamicin exert their antimicrobial effects via different mechanisms, the two agents were combined and the combined treatment results in a six-log reduction in viable cells.

[8] = test system: Pseudomonas aeruginosa biofilm; assay: Spinning disc reactor biofilms, viable cell counts; type: cell-based; conditions: 24 h
Protocol: A spinning disc reactor as a third method was used to study biofilms. The biofilms grown under different conditions were tested and the activity of gallium-desferrioxamine against biofilms grown in a spinning disc reactor under continuous flow with high shear was examined. In this system biofilms are grown under a flow of medium and at high shear forces. After 24 h in a flow of medium, the polycarbonate chips with attached biofilm bacteria were removed from the spinning disc and washed 3 times in PBS. All incubations for spinning disc experiments were at 37° C. These biofilms were then exposed to the indicated agents in water for 24 h. Cells that detached from the biofilm during the treatment were enumerated by plating on LB agar. To estimate the number of remaining attached biofilm cells, the discs were placed in 1 ml PBS and the cells were dispersed by using a tissue homogenizer (Brinkman Homogenizer, Westbury, N.Y.). Viable cell numbers were determined by plating on LB agar. […] Furthermore, when gallium-desferrioxamine and gentamicin are used together, viability is reduced by almost 6 logs, leaving only a few viable cells.

[9] = test system: P. aeruginosa clinical isolates biofilms; assay: Spinning disc reactor biofilms of 15 clinical isolates; type: cell-based, Pseudomonas aeruginosa; conditions: 24 h
Protocol: To verify that the sensitivities observed with laboratory strain of P. aeruginosa (PAO1) would hold with other clinical isolates of the bacterium, 15 clinical isolates of the same bacterium obtained from CF, eye and wound infected patients were screened. The group of isolates tested included mucoid strains, and strains with a variety of drug resistance profiles. The spinning-disc biofilm reactor system was utilized. In this system biofilms are grown under a flow of medium and at high shear forces. After 24 h in a flow of medium the polycarbonate chips with attached biofilm bacteria were removed from the spinning disc and washed 3 times in PBS. All incubations for spinning disc experiments were at 37° C. These biofilms were then exposed to Gm (50 μg/ml), DFO-Ga (1 mM) or a combination of gallium-desferrioxamine […] in water for 24 h. To estimate the number of remaining attached biofilm cells, we placed the discs in 1 ml PBS and dispersed the cells by using a tissue homogenizer (Brinkman Homogenizer, Westbury, N.Y.). Viable cell numbers were determined by plating on LB agar. […]

[10] = test system: pvdA-GFP iron starvation promoter fusion; assay: Iron starvation reporter (pvdA-GFP) fluorescence in PAO1; type: cell-based, Pseudomonas aeruginosa; conditions: 1 mM, 1 h at 37° C.
Protocol: To study the effect of DFO-Ga on iron regulation in the cell, a P. aeruginosa PAO1 strain-carrying GFP fused to an iron starvation promoter (pvdA-GFP) was constructed. The promoter is induced under iron limitation. Free living PAO1 carrying pvdA-GFP fusion, i.e., an iron starvation reporter fusion, 10^9 cell/ml in 1% TSB were exposed to […] Ga (1 mM), DFO (1 mM), or DFO-Ga (1 mM) for 1 h at 37° C.

[11] = test system: Staphylococcus aureus (MRSA strain) biofilm; assay: Spinning disc reactor biofilms of MRSA S. aureus; type: cell-based; conditions: 1 mM, 24 h
Protocol: The effect of gallium-desferrioxamine against the drug resistant bacterial was investigated. The efficacy of DFO-Ga against common biofilm pathogens Staphylococcus aureus (MRSA strain) and Escherichia coli was examined. Biofilms were grown using the spinning disc reactor system as above. Spinning disc reactor biofilms with E. coli or MRSA S. aureus were treated for 24 h. The concentration of DFO-Ga in both treatments was (1 mM). In the E. coli treatment, the concentration of Gm was 10 μg/ml and for the combination of DFO-Ga (1 mM) and Gm (10 μg/ml).
As shown FIG. 12B, DFO-Ga was able to reduce the viable Staphylococcus aureus biofilm bacteria by approximately 3 log units.

[12] = systemic treatment, ischemia and reperfusion; cited from earlier work
Pseudomonas aeruginosa [13] = assay: Rabbit cornea infection (keratitis) with P. aeruginosa, topical treatment; type: in vivo; conditions: 0.5% gentamicin eye drops
[14] = topical application, alkali burn; cited from earlier work

For `CC(=O)N(O)CCCCCNC(=O)CCC(=O)N(O)CCCCCNC(=O)CCC(=O)N(O)CCCCCN` [desferrioxamine], the “growth inhibition (highest concentration without inhibition)” value (Pseudomonas aeruginosa [1]) was greater than 1 mM, the biofilm formation ([2]; 1 μM) was “does not affect biofilm formation” and the “killing of cells in six-day old biofilm (propidium iodide staining)” value (shortened to “killing of cells in six-day old biofilm”) ([3]; 1 mM) was “does not appear to kill cells in mushroom-like structures”. For the same compound, the complex formation constant [4] was 10^31, the complex formation constant [5] was 10^25 and the complex formation constant [6] was ≤ 10^14.
With `CC(=O)N([O-])CCCCCNC(=O)CCC(=O)N([O-])CCCCCNC(=O)CCC(=O)N([O-])CCCCCN.[Ga+3]` [gallium-desferrioxamine] the “minimal inhibitory concentration (MIC)” value (Pseudomonas aeruginosa [1]) was 32 µM, the “killing relative to gentamicin” value ([7]; 1 mM, versus gentamicin 10 μg per ml) was 10-100 times and the biofilm formation ([2]; 1 μM) was “effectively blocked”. The “biofilm formation under continuous flow” value ([3]; 1 μM, flow cell) was “completely blocks biofilm formation”, the “killing of cells in six-day old biofilm” value ([3]; 1 mM) was “causes death of cells throughout the mushroom-like structures” and the “decrease in cell counts” value ([8]; 1 mM) was 3-4 log. For the same compound, the log killing ([9]; DFO-Ga 1 mM) was 3.02 log, the “induction in relative fluorescence compared to non-treated controls” value [10] was “four” and the “reduction of viable Staphylococcus aureus biofilm bacteria” value [11] was “approximately 3 log units”. The “damage to the retina” value [12] was “reduced damage to the retina”.
In the case of `[Ga]` [gallium], the biofilm formation ([2]; 1 μM) is reported as “effectively blocked”, the “killing of cells in six-day old biofilm” value ([3]; 1 mM) is reported as “killing of cells in the outer regions of the biofilm only” and the reduction in fluorescence [10] is reported as “two”.
For gentamicin, the reduction of viability ([7]; gentamicin 10 μg per ml) was “three”, the biofilm formation ([2]; 0.1 μg per ml) was “does not affect biofilm formation” and the “killing of cells in six-day old biofilm” value ([3]; 50 μg/ml) was “killing of cells in the outer regions of the biofilm only”. The “decrease in cell counts” value ([8]; 50 μg/mL) was 2 log, the log killing ([9]; Gm 50 μg/ml) was 0.95 log and the scarring (Pseudomonas aeruginosa [13]) was “significant scarring persists”. For the same compound, the “time to resolution of the infection” value (Pseudomonas aeruginosa [13]) was no more than 120 h.
For zinc-desferrioxamine, the “damage to the retina” value [12] is listed as “reduced damage to the retina” and the corneal damage [14] is listed as “reduced corneal damage”.
